Reference: ChEMBL document CHEMBL1201862, “PubChem BioAssay data set” (2004)
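Compound exposure: 48 hours, 5 concentrations, 96-well plates. GI50 marks 50% less growth.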 The source made the active and inactive calls. Cut-off read from the data, not from the text of the source: active = GI50 up to about 1.1 µM and inactive = higher.

What was measured:
Assay in all cases: growth of human tumour cells (NCI), 48 h
[1] = tested on: A498
[2] = tested on: CAKI-1
[3] = tested on: CCRF-CEM
[4] = tested on: DLD-1
[5] = tested on: DMS-273
[6] = tested on: EKVX
[7] = tested on: HCC 2998
[8] = tested on: HCT-15
[9] = tested on: HL-60
[10] = tested on: HOP-62
[11] = tested on: HT-29
[12] = tested on: K562
[13] = tested on: KM12
[14] = tested on: LOX IMVI
[15] = tested on: MCF7
[16] = tested on: MOLT-4
[17] = tested on: Malme-3M
[18] = tested on: NCI-H23
[19] = tested on: NCI-H460
[20] = tested on: NCI-H522
[21] = tested on: OVCAR-3
[22] = tested on: OVCAR-5
[23] = tested on: RPMI-8226
[24] = tested on: RXF 393
[25] = tested on: SF-268
[26] = tested on: SF-295
[27] = tested on: SF-539
[28] = tested on: SK-MEL-28
[29] = tested on: SK-MEL-2
[30] = tested on: SK-MEL-5
[31] = tested on: SN12C
[32] = tested on: SNB-19
[33] = tested on: SNB-75
[34] = tested on: SW-620
[35] = tested on: U-251
[36] = tested on: UACC-257
[37] = tested on: A549
[38] = tested on: COLO 205
[39] = tested on: DMS-114
[40] = tested on: HOP-18
[41] = tested on: KM-20L2
[42] = tested on: LXFL 529
[43] = tested on: M19-MEL
[44] = tested on: OVCAR-4
[45] = tested on: SK-OV-3
[46] = tested on: SR
[47] = tested on: TK-10
[48] = tested on: UACC-62
[49] = tested on: 786-0
[50] = tested on: ACHN
[51] = tested on: BT-549
[52] = tested on: DU-145
[53] = tested on: HCT-116
[54] = tested on: HOP-92
[55] = tested on: Hs-578T
[56] = tested on: IGROV-1
[57] = tested on: M14
[58] = tested on: MDA-MB-231
[59] = tested on: MDA-MB-435
[60] = tested on: MDA-N
[61] = tested on: NCI-H226
[62] = tested on: NCI/ADR-RES
[63] = tested on: OVCAR-8
[64] = tested on: PC-3
[65] = tested on: T47D
[66] = tested on: UO-31

CCN(CC)CC[n+]1ccc2c(C)c3[nH]c4ccccc4c3c(C)c2c1
GI50 [1]: 5.19 µM (inactive)
GI50 [2]: 1.11 µM (active)
GI50 [3]: 0.219 µM (active)
GI50 [4]: 1.67 µM (inactive)
GI50 [5]: 0.315 µM (active)
GI50 [6]: 982 nM (active)
GI50 [7]: 0.319 µM (active)
GI50 [8]: 16.3 µM
GI50 [9]: 0.31 µM (active)
GI50 [10]: 0.953 µM (active)
GI50 [11]: 0.518 µM (active)
GI50 [12]: 0.182 µM (active)
GI50 [13]: 0.385 µM (active)
GI50 [14]: 0.399 µM (active)
GI50 [15]: 0.678 µM (active)
GI50 [16]: 0.182 µM (active)
GI50 [17]: 0.583 µM (active)
GI50 [18]: 0.292 µM (active)
GI50 [19]: 0.451 µM (active)
GI50 [20]: 0.211 µM (active)
GI50 [21]: 0.213 µM (active)
GI50 [22]: 1.14 µM (inactive)
GI50 [23]: 0.644 µM (active)
GI50 [24]: 2.09 µM (inactive)
GI50 [25]: 0.222 µM (active)
GI50 [26]: 0.701 µM (active)
GI50 [27]: 0.413 µM (active)
GI50 [28]: 0.352 µM (active)
GI50 [29]: 0.465 µM (active)
GI50 [30]: 0.337 µM (active)
GI50 [31]: 0.222 µM (active)
GI50 [32]: 0.17 µM (active)
GI50 [33]: 0.251 µM (active)
GI50 [34]: 0.445 µM (active)
GI50 [35]: 0.173 µM (active)
GI50 [36]: 0.565 µM (active)

CO[C@H](/C(C)=C/C=C/C(C)=C/c1coc(C)n1)[C@H](C)[C@H]1C[C@@H](O)[C@@]2(C)O[C@H]2/C=C/[C@@H](C)[C@@H]2C[C@@H](CC(=O)O2)C[C@H]2O[C@@H]2C(=O)O1
GI50 [37]: < 0.01 µM (active)
GI50 [38]: < 0.01 µM (active)
GI50 [4]: 0.0147 µM (active)
GI50 [39]: < 0.01 µM (active)
GI50 [5]: < 0.01 µM (active)
GI50 [6]: 0.00203 nM (active)
GI50 [7]: < 0.01 µM (active)
GI50 [40]: 0.05 µM (active)
GI50 [11]: 0.0133 µM (active)
GI50 [12]: < 0.01 µM (active)
GI50 [41]: < 0.01 µM (active)
GI50 [42]: < 0.01 µM (active)
GI50 [43]: < 0.0236 µM (active)
GI50 [17]: < 0.01 µM (active)
GI50 [44]: 5.18e-06 µM (active)
GI50 [22]: 0.000384 µM (active)
GI50 [29]: < 0.01 µM (active)
GI50 [45]: 1.03e-06 µM (active)
GI50 [33]: < 0.0271 µM (active)
GI50 [46]: < 0.01 µM (active)
GI50 [47]: 3.21e-06 µM (active)
GI50 [36]: < 0.0283 µM (active)
GI50 [48]: < 0.01 µM (active)

N#CCCN(CCC#N)c1ccc(/C=C2\SC(=S)NC2=O)cc1Br
GI50 [49]: 37.8 µM (inactive)
GI50 [1]: 33.3 µM (inactive)
GI50 [37]: > 100 µM (inactive)
GI50 [50]: 67.9 µM (inactive)
GI50 [51]: 37.3 µM (inactive)
GI50 [2]: > 100 µM (inactive)
GI50 [3]: > 100 µM (inactive)
GI50 [38]: > 100 µM (inactive)
GI50 [52]: > 100 µM (inactive)
GI50 [6]: 46900 nM (inactive)
GI50 [7]: > 100 µM (inactive)
GI50 [53]: > 100 µM (inactive)
GI50 [8]: > 100 µM
GI50 [9]: 79.8 µM (inactive)
GI50 [10]: 15.3 µM (inactive)
GI50 [54]: 50.5 µM (inactive)
GI50 [11]: > 100 µM (inactive)
GI50 [55]: 0.598 µM (active)
GI50 [56]: 72.1 µM (inactive)
GI50 [12]: > 100 µM (inactive)
GI50 [13]: 66.7 µM (inactive)
GI50 [14]: 23.1 µM (inactive)
GI50 [57]: > 100 µM (inactive)
GI50 [15]: > 100 µM (inactive)
GI50 [58]: 25.9 µM (inactive)
GI50 [59]: > 100 µM (inactive)
GI50 [60]: > 100 µM (inactive)
GI50 [16]: > 100 µM (inactive)
GI50 [17]: 16.9 µM (inactive)
GI50 [61]: > 100 µM (inactive)
GI50 [18]: > 100 µM (inactive)
GI50 [19]: > 100 µM (inactive)
GI50 [20]: 76 µM (inactive)
GI50 [62]: > 100 µM (inactive)
GI50 [21]: > 100 µM (inactive)
GI50 [44]: 85.1 µM (inactive)
GI50 [22]: > 100 µM (inactive)
GI50 [63]: 68.5 µM (inactive)
GI50 [64]: > 100 µM (inactive)
GI50 [23]: > 100 µM (inactive)
GI50 [24]: 86.3 µM (inactive)
GI50 [25]: 20.9 µM (inactive)
GI50 [26]: 27.9 µM (inactive)
GI50 [27]: > 100 µM (inactive)
GI50 [28]: > 100 µM (inactive)
GI50 [29]: > 100 µM (inactive)
GI50 [30]: > 100 µM (inactive)
GI50 [45]: 28.6 µM (inactive)
GI50 [31]: > 100 µM (inactive)
GI50 [32]: 23.8 µM (inactive)
GI50 [33]: 17.8 µM (inactive)
GI50 [46]: > 100 µM (inactive)
GI50 [34]: > 100 µM (inactive)
GI50 [65]: > 100 µM (inactive)
GI50 [47]: > 100 µM (inactive)
GI50 [35]: 17.3 µM (inactive)
GI50 [36]: > 100 µM (inactive)
GI50 [48]: > 100 µM (inactive)
GI50 [66]: > 100 µM (inactive)
